Assay results: patent publication US9546157B2, “Asymmetric piperidinyl-substituted ureas as medicines” (Helsinn Healthcare SA, priority 2014, dated 2017)
pEC50, pIC50: −log10 of the molar value.

What was measured:
[1] = Metabolic Stability (H = Human); format: in vitro ADME
GHSR1a [2] = biological target: T1, GHSR1a (Homo sapiens, UniProt Q92847); assay: Calcium FLIPR assay, GHSR-1a antagonism (reduction of ghrelin response); format: cell-based; conditions: HEK293/GHSR1a cells, ghrelin 10 nM
T1 construct: expressed in transfected cells; host or cells: HEK293
Method in brief: (§1)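 HEK293 cells expressing GHSR1a, seeded 24 hr earlier and loaded with calcium dye for 30-60 min at room temperature or 37° C, were read by FLIPR fluorescence. Agonism: compound added at t=20 sec, calcium followed 2 minutes. Antagonism: compound plus ghrelin (10 nM) at t=20 sec; potency from reduction of ghrelin response.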

[3] = Metabolic Stability (M = Mouse); format: in vitro ADME
GHSR1a [4] = biological target: T1, GHSR1a; assay: Calcium FLIPR assay, GHSR-1a agonism; format: cell-based; parameters: Emax: unit not given here; conditions: HEK293/GHSR1a cells
Method in brief: as §1

T1 sequence (Q92847 whole entry): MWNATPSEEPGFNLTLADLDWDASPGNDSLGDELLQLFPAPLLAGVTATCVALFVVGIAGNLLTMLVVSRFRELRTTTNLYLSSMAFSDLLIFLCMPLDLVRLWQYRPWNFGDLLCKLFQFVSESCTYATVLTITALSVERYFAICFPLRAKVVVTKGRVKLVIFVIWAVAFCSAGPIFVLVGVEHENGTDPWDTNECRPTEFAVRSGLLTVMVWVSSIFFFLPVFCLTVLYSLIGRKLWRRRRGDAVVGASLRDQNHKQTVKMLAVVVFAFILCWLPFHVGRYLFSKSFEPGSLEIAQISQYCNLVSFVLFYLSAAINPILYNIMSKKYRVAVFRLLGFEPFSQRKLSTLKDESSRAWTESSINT

Metabolic Stability H [1] | pIC50 (GHSR1a [2]) | Metabolic Stability M [3] | pEC50 (GHSR1a [4]) | Emax (GHSR1a [4]) | SMILES
Medium H Medium M | 7.82 | Medium H Medium M | 7.70 | 2069 | CC(NC(=O)N(C)C1CCN(C)CC1)c1ccc(-c2cccs2)c(Cl)c1F (stereo not shown) [Compound H0582, 3-(1-(34-chloro-2-fluoro-4-(thiophen-2-yl)phenyl)ethyl)-1-methyl-1-(1-methylpiperidin-4-yl)urea]
High H High M | 7.92 | High H High M | 7.60 |  | CC(NC(=O)N(C)C1CCN(C)CC1)c1ccc(-c2c[nH]nn2)c(Cl)c1Cl (stereo not shown) [Compound H0604, 3-(1-(2,3-dichloro-4-(1H-1,2,3-triazol-4-yl)phenyl)ethyl)-1-methyl-1-(1-methylpiperidin-4-yl)urea]
Medium H Medium M | 7.00 | Medium H Medium M | < 4.52 |  | CC(NC(=O)N(C)C1CCN(C)CC1)c1ccc(-c2cccc(C#N)c2)c(Cl)c1Cl (stereo not shown) [Compound H0610, 3-(1-(2,3-dichloro-3′-cyano-[1,1′-biphenyl]-4-yl)ethyl)-1-methyl-1-(1-methylpiperidin-4-yl)urea]
High | 7.05 | Medium | < 4.52 |  | CC(NC(=O)N(C)C1CCN(C)CC1)c1ccc(-c2cncc(CO)c2)c(Cl)c1Cl (stereo not shown) [Compound H0636, 3-(1-(2,3-dichloro-4-(5-(hydroxymethyl)pyridin-3-yl)phenyl)ethyl)-1-methyl-1-(1-methylpiperidin-4-yl)urea]
Medium H Medium M | 7.07 | Medium H Medium M | < 4.52 |  | CC(NC(=O)N(C)C1CCN(C)CC1)c1ccc(-c2cncc(C(F)F)c2)c(Cl)c1Cl (stereo not shown) [Compound H0637, 3-(1-(2,3-dichloro-4-(5-(difluoromethyl)pyridin-3-yl)phenyl)ethyl)-1-methyl-1-(1-methylpiperidin-4-yl)urea]
Medium H Medium M | 8.22 | Medium H Medium M | 7.55 | 2822 | CN1CCC(N(C)C(=O)NC(C#N)c2ccc(-c3ccsc3)c(Cl)c2Cl)CC1 (stereo not shown) [Compound H0644, 3-(cyano(2,3-dichloro-4-(thiophen-3-yl)phenyl)methyl)-1-methyl-1-(1-methylpiperidin-4-yl)urea]
Medium H Medium M | 8.40 | Medium H Medium M | 8.05 | 1815 | CC(NC(=O)N(C)C1CCN(C)CC1)c1ccc(-c2ccc(CO)s2)c(Cl)c1Cl (stereo not shown) [Compound H0653, 3-(1-(2,3-dichloro-4-(5-(hydroxymethyl)thiophen-2-yl)phenyl)ethyl)-1-methyl-1-(1-methylpiperidin-4-yl)urea]
High | 8.40 | Medium | 8.10 |  | Cc1ccc(-c2ccc(C(C)NC(=O)N(C)C3CCN(C)CC3)c(Cl)c2Cl)o1 (stereo not shown) [Compound H0665, 3-(1-(2,3-dichloro-4-(5-methylfuran-2-yl)phenyl)ethyl)-1-methyl-1-(1-methylpiperidin-4-yl)urea]
High H High M | 7.28 | High H High M | < 4.52 |  | CC(NC(=O)N(C)C1CCN(C)CC1)c1ccc(-c2cncc(C3=CCCC3)c2)c(Cl)c1Cl (stereo not shown) [Compound H0705, 3-(1-(2,3-dichloro-4-(5-(cyclopent-1-en-1-yl)pyridin-3-yl)phenyl)ethyl)-1-methyl-1-(1-methylpiperidin-4-yl)urea]

Further lines, the compound ahead of its results:

SMILES | Metabolic Stability H [1] | pIC50 (GHSR1a [2]) | Metabolic Stability M [3] | pEC50 (GHSR1a [4]) | Emax (GHSR1a [4])
CC(NC(=O)N(C)C1CCN(C)CC1)c1ccc(-c2cccc(N)c2)c2ccccc12 (stereo not shown) [Compound H0591, 3-(1-(4-(3-aminophenyl)naphthalen-1-yl)ethyl)-1-methyl-1-(1-methylpiperidin-4-yl)urea] | Medium H Medium M | 7.96 | Medium H Medium M | 6.90 | 
CN1CCC(N(C)C(=O)NC(COCc2cccc(CO)c2)c2ccc(-c3ccsc3)c(Cl)c2Cl)CC1 (stereo not shown) [Compound H0594, 3-(1-(2,3-dichloro-4-(thiophen-3-yl)phenyl)-2-((3-(hydroxymethyl)benzyl)oxy)ethyl)-1-methyl-1-(1-methylpiperidin-4-yl)urea] | Poor | 7.27 | Medium | < 4.52 | 
CC(NC(=O)N(C)C1CCN(C)CC1)c1ccc(-c2cncs2)c2ccccc12 (stereo not shown) [Compound H0597, 1-methyl-1-(1-methylpiperidin-4-yl)-3-(1-(4-(thiazol-5-yl)naphthalen-1-yl)ethyl)urea] | Poor H Poor M | 7.62 | Poor H Poor M | < 4.52 | 
CC(NC(=O)N(C)C1CCN(C)CC1)c1ccc(-c2ccc(C(N)=O)cc2)c(Cl)c1Cl (stereo not shown) [Compound H0615, 2′,3′-dichloro-4′-(1-(3-methyl-3-(1-methylpiperidin-4-yl)ureido)ethyl)-[1,1′-biphenyl]-4-carboxamide] | High | 6.97 | Medium | < 4.52 | 
CN1CCC(N(C)C(=O)NC(COCc2cccc(CO)c2)c2ccc(-c3cncnc3)c(Cl)c2Cl)CC1 (stereo not shown) [Compound H0620, 3-(1-(2,3-dichloro-4-(pyrimidin-5-yl)phenyl)-2-((3-(hydroxymethyl)benzyl)oxy)ethyl)-1-methyl-1-(1-methylpiperidin-4-yl)urea] | Poor H Poor M | 7.49 | Poor H Poor M | < 4.52 | 
CC(NC(=O)N(C)C1CCN(C)CC1)c1ccc(-c2cnc3[nH]ncc3c2)c(Cl)c1Cl (stereo not shown) [Compound H0623, 3-(1-(2,3-dichloro-4-(1H-pyrazolo[3,4-b]pyridin-5-yl)phenyl)ethyl)-1-methyl-1-(1-methylpiperidin-4-yl)urea] | Medium | 7.15 | Poor | < 4.52 | 
CC(NC(=O)N(O)C1CCN(C)CC1)c1ccc(-c2cccs2)c(Cl)c1Cl (stereo not shown) [Compound H0627, 3-(1-(2,3-dichloro-4-(thiophen-2-yl)phenyl)ethyl)-1-hydroxy-1-(1-methylpiperidin-4-yl)urea] | High H High M | 8.40 | High H High M | 9.00 | 5289
CC(NC(=O)N(C)C1CCN(C)CC1)c1ccc(CC#N)c(Cl)c1Cl (stereo not shown) [Compound H0630, 3-(1-(2,3-dichloro-4-(cyanomethyl)phenyl)ethyl)-1-methyl-1-(1-methylpiperidin-4-yl)urea] | High H High M | 8.52 | High H High M | 8.05 | 4714
CC(NC(=O)N(C)C1CCN(C)CC1)c1ccc(CO)c(Cl)c1Cl (stereo not shown) [Compound H0633, 3-(1-(2,3-dichloro-4-(hydroxymethyl)phenyl)ethyl)-1-methyl-1-(1-methylpiperidin-4-yl)urea] | High H High M | 8.52 | High H High M | 7.82 | 
CC(NC(=O)N(C)C1CCN(C)CC1)c1ccc(-c2cncc(C=O)c2)c(Cl)c1Cl (stereo not shown) [Compound H0642, 3-(1-(2,3-dichloro-4-(5-formylpyridin-3-yl)phenyl)ethyl)-1-methyl-1-(1-methylpiperidin-4-yl)urea] | Very low | 7.11 | Very Low | < 4.52 | 
CC(NC(=O)N(C)C1CCN(C)CC1)c1ccc(-c2ccc(C(F)F)s2)c(Cl)c1Cl (stereo not shown) [Compound H0654, 3-(1-(2,3-dichloro-4-(5-(difluoromethyl)thiophen-2-yl)phenyl)ethyl)-1-methyl-1-(1-methylpiperidin-4-yl)urea] | High | 8.22 | Medium | 8.00 | 2200
CC(O)c1ccc(-c2ccc(C(C)NC(=O)N(C)C3CCN(C)CC3)c(Cl)c2Cl)s1 (stereo not shown) [Compound H0656, 3-(1-(2,3-dichloro-4-(5-(1-hydroxyethyl)thiophen-2-yl)phenyl)ethyl)-1-methyl-1-(1-methylpiperidin-4-yl)urea] | Medium H Medium M | 8.15 | Medium H Medium M | 7.82 | 1350
CC(=O)C#Cc1ccc(C(C)NC(=O)N(C)C2CCN(C)CC2)c(Cl)c1Cl (stereo not shown) [Compound H0701, 3-(1-(2,3-dichloro-4-(3-oxobut-1-yn-1-yl)phenyl)ethyl)-1-methyl-1-(1-methylpiperidin-4-yl)urea] | Low H Low M | 7.70 | Low H Low M | < 4.52 | 
CC(NC(=O)N(C)C1CCN(C)CC1)c1ccc(-c2cncc(-c3cncs3)c2)c(Cl)c1Cl (stereo not shown) [Compound H0716, 3-(1-(2,3-dichloro-4-(5-(thiazol-5-yl)pyridin-3-yl)phenyl)ethyl)-1-methyl-1-(1-methylpiperidin-4-yl)urea] | Low | 7.82 | Medium | < 4.52 | 
CN1CCC(N(C)C(=O)NC(CC2CC2)c2ccc(-c3cccnc3)c(Cl)c2Cl)CC1 (stereo not shown) [Compound H0720, 3-(2-cyclopropyl-1-(2,3-dichloro-4-(pyridin-3-yl)phenyl)ethyl)-1-methyl-1-(1-methylpiperidin-4-yl)urea] | Medium | 8.10 | High | < 4.52 | 
